Some results are limits rather than exact numbers.

The Kd is a measure of binding affinity in units of concentration.

The target in this experiment is T1, DCAF1 WD40 domain (residues 1077-1390) (Homo sapiens, UniProt Q9Y4B6).
T1 construct: DCAF1 WD40 domain (residues 1077-1390)
T1 sequence (Q9Y4B6 1077-1390): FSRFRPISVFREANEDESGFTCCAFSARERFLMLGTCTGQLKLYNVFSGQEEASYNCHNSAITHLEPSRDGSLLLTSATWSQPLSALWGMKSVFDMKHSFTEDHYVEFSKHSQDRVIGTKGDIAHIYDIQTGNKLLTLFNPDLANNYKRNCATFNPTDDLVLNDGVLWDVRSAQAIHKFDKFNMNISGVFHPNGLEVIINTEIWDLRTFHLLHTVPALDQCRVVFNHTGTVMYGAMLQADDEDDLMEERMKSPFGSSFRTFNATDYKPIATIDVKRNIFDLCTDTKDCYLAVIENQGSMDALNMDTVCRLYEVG
Briefly: DCAF1 binding assay by SPR (Biacore 8K+), DCAF1-3 KD. The note with it: 25 °C, read-out: DCAF1-3 SPR (KD). On the technique in general: SPR reads the build-up and loss of mass on a sensor chip optically.
For `O[C@H]1CCCN(c2ccnc(N3CC[C@H]4[C@@H]3CCCN4c3cccc(F)c3)c2)C1` [I-797], the Kd fell in the range of 10 to 100 µM.
Take `OCCC[C@H]1C[C@H]2[C@H](CCCN2c2cccc(F)c2)N1c1cc(N2CCCCC2)ccn1` [I-835]: the Kd is > 200 µM.
The same measure for `Cc1c(F)ccc(F)c1-c1c(C(=O)N[C@@H](CC(N)=O)c2cccc(Cl)c2)cn(C)c1C(=O)c1ccc(OCCOCCOCCOCCOCCOCCOCCN)cc1` [I-1015]: < 10 µM; for `NC(=O)C[C@H](NC(=O)c1c[nH]c(Cc2ccccc2)c1-c1c(F)cccc1F)c1cccc(Cl)c1` [I-566]: < 10 µM; for `NC(=O)C[C@H](NC(=O)c1cnn(C(=O)c2ccncn2)c1-c1ccccc1F)c1cccc(Cl)c1` [I-174]: > 200 µM.
As to `Fc1cccc(N2C[C@H](Nc3cc(N4CCOCC4)ncn3)C3CC[C@H]2C3)c1` [I-383], the Kd is > 200 µM.
With `O=C1CC(C(NC(=O)c2cn[nH]c2-c2ccccc2F)c2cccc(Cl)c2)CN1` (stereo not drawn) [I-561] the figure was > 200 µM; with `Fc1cccc(N2CCC[C@@H](Nc3cc(N4CCCCC4)ncn3)C2)c1` [I-379], > 200 µM.
With `NCc1cccc(N2CCC[C@@H](Nc3cc(N4CCOCC4)ccn3)C2)c1` [I-866] the figure was > 200 µM; with `NC(=O)C[C@H](NC(=O)c1cnn(CC2CC2)c1-c1ccccc1F)c1cccc(Cl)c1` [I-133], 10 to 100 µM; with `NC(=O)Cc1cccc(N2CCC[C@H]3[C@@H]2CCN3c2cc(N3CCCCC3)ccn2)c1` [I-942], < 10 µM.
With `Cc1cnc(N2CCOCC2)cc1N[C@@H]1CCCN(c2cccc(F)c2)C1` [I-404] the figure was > 200 µM.
As for `Fc1cccc(N2CCC[C@@H](Nc3cc(C4CCOCC4)ccn3)C2)c1` [I-92], the Kd was > 200 µM.
The same measure for `Nc1ccc(N[C@@H]2CCCN(c3cccc(F)c3)C2)cc1C1CCCCC1` [I-930]: 10 to 100 µM; for `Oc1cc(N[C@@H]2CCCN(c3cccc(F)c3)C2)cc(N2CCOCC2)c1` [I-564]: 10 to 100 µM; for `Cc1ccc(Cl)cc1[C@H](CC(N)=O)NC(=O)c1cn[nH]c1-c1ccccc1F` [I-583]: < 10 µM.
The same measure for `CN1CC=CC[C@@H]1CC(=O)N[C@@H](CC(N)=O)c1cccc(Cl)c1` [I-442]: > 200 µM; for `NC(=O)C[C@H](NC(=O)[C@@H]1CC[C@](O)(c2ccccc2)C1)c1cccc(Cl)c1` [I-444]: > 200 µM; for `Fc1cccc([C@@H]2CCC[C@@H](Nc3cc(N4CCOCC4)ncn3)C2)c1` [I-183]: > 200 µM.
With `CCCN1CCN(c2ccnc(NC3CCCN(c4cccc(F)c4)C3)n2)CC1` (stereo not drawn) [I-25] the figure was > 200 µM; with `NC(=O)C[C@H](NC(=O)c1cn[nH]c1-c1ccccc1F)c1ccccn1` [I-340], > 200 µM; with `NC(=O)C[C@H](NC(=O)c1cc(=O)[nH]cc1-c1ccccc1F)c1cccc(Cl)c1` [I-215], > 200 µM.
For `Fc1cccc(N2CCCC(C3(c4cc(N5CCOCC5)ccn4)CC3)C2)c1` (stereo not drawn) [I-259], the Kd is > 200 µM.
As to `C[C@H]1CCCCN1c1ccnc(N2CC[C@@H]3[C@H]2CCCN3c2cccc(F)c2)c1` [I-643], the Kd is < 10 µM.
With `Fc1cccc(N2CCC[C@@H](N(Cc3ccccc3)c3cc(N4CCOCC4)ncn3)C2)c1` [I-387] the figure was > 200 µM; with `CC(C)n1cc(C(=O)N[C@@H](CC(N)=O)c2cccc(Cl)c2)c(-c2ccccc2F)n1` [I-138], 10 to 100 µM.
With `Cc1sc2c(c1C)C(c1ccc(Cl)cc1)=N[C@@H](CC(=O)NCCOCCOCCOCCOCCOCCn1cc(C(=O)N[C@@H](CC(N)=O)c3cccc(Cl)c3)c(-c3ccccc3F)n1)c1nnc(C)n1-2` [I-489] the figure was 100 to 200 µM; with `C[C@H]1CC[C@H](O)CN1c1ccnc(N2CC[C@@H]3[C@H]2CCCN3c2cccc(F)c2)c1` [I-823], < 10 µM.
The same measure for `Cc1cccc(N2CCC[C@@H](Nc3cc(N4CCOCC4)ccn3)C2)c1` [I-510]: 100 to 200 µM; for `C=CC(=O)N1CCC[C@H](c2n[nH]cc2C(=O)N[C@@H](CC(N)=O)c2cccc(Cl)c2)C1` [I-483]: > 200 µM.
For the compound `Fc1cccc(N2CCC[C@@H](Nc3cc(N4CCOCC4)ccn3)C23COC3)c1` [I-280], the Kd is > 200 µM.
The same measure for `NC(=O)CCN(c1cc(N2CCOCC2)ccn1)[C@@H]1CCCN(c2cccc(F)c2)C1` [I-291]: > 200 µM.
With `CCCCN1CCN(c2ccnc(N[C@@H]3CCCN(c4cccc(F)c4)C3)c2)CC1` [I-318] the figure was > 200 µM; with `c1cc2ccc(N3CCC[C@@H](Nc4nccc(N5CCOCC5)n4)C3)cc2cn1` [I-57], 10 to 100 µM.
With `Fc1cccc(N2[C@H]3CCC[C@@H]2[C@H](Nc2nccc(N4CCOCC4)n2)CC3)c1` (stereo in doubt) [I-322] the figure was > 200 µM; with `NC(=O)C[C@H](NC(=O)c1cn[nH]c1C(=O)c1ccccc1)c1cccc(Cl)c1` [I-619], < 10 µM.
In the case of `Cc1c(F)ccc(F)c1-c1c(C(=O)N[C@@H](CC(N)=O)c2cccc(Cl)c2)csc1C(=O)c1ccccc1` [I-944], the Kd was < 10 µM.
Turning to `CS(=O)(=O)CCC(=O)N1CCC[C@@H](Nc2cc(N3CCOCC3)ccn2)C1` [I-767], the Kd is > 200 µM.
With `CCCN1CCN(c2cc(N[C@@H]3CCCN(c4cccc(F)c4)C3)ncn2)CC1` [I-376] the figure was > 200 µM; with `O=C(CC1CN(C(=O)N2CCC=C(F)C2)CCO1)Nc1ccccn1` (stereo not drawn) [I-86], > 200 µM.
On to `OC[C@H]1C[C@@H](Nc2cc(N3CCCCC3)ccn2)CN(c2cccc(F)c2)C1` [I-936], for which the equilibrium dissociation constant (Kd) is 10 to 100 µM.
For the compound `O=C1NCCN1Cc1cccc(N2CCC[C@@H]3[C@H]2CCN3c2cc(N3CCCCC3)ccn2)c1` [I-959], the dissociation constant (Kd) fell in the range of 10 to 100 µM.
The same measure for `O=C(N[C@@H](c1cnoc1)c1cccc(Cl)c1)c1c[nH]nc1-c1ccccc1F` [I-233]: > 200 µM; for `Nc1cc(N2CCOCC2)cc(N[C@@H]2CCCN(c3cccc(F)c3)C2)n1` [I-369]: > 200 µM; for `C=CC(=O)NCC1CCN(c2ccnc(N3CC[C@@H]4[C@H]3CCCN4c3cccc(F)c3)c2)CC1` [I-665]: 10 to 100 µM.
With `C=CC(=O)NC1CCC(c2[nH]ncc2C(=O)N[C@H](CC(N)=O)c2cccc(Cl)c2)CC1` (stereo partly drawn) [I-537] the figure was 10 to 100 µM; with `OC[C@H]1C[C@H](Nc2cc(N3CCCCC3)ccn2)CN(c2cccc(F)c2)C1` [I-1012], 10 to 100 µM.
Regarding `c1ccc(-n2cnc3cc(N4CCC[C@@H](Nc5cc(N6CCOCC6)ccn5)C4)ccc32)cc1` [I-688], the Kd was > 200 µM.
With `Cc1c(F)ccc(F)c1-c1c(C(=O)N[C@@H](CC(N)=O)c2cccc(Cl)c2)c[nH]c1C(=O)c1ccc(CCCOCCOCCOCCN)cc1` [I-806] the figure was < 10 µM; with `Cc1n[nH]cc1C(=O)N[C@@H](CC(N)=O)c1cccc(Cl)c1` [I-107], > 200 µM; with `NC(=O)C[C@H](NC(=O)c1c[nH]c(Nc2ccccc2)c1-c1c(F)cccc1F)c1cccc(Cl)c1` [I-629], < 10 µM.
The same measure for `N#Cc1ccc([C@H](CC(N)=O)NC(=O)c2c[nH]nc2-c2ccccc2F)cc1` [I-118]: < 10 µM; for `c1ccc2c(N3CCC[C@@H](Nc4cc(N5CCOCC5)ccn4)C3)n[nH]c2c1` [I-111]: > 200 µM.
As for `Fc1cccc(N2CCC[C@@H](Nc3nccc(N4CCNCC4)n3)C2)c1` [I-314], the Kd was > 200 µM.
The same measure for `Cc1c(F)ccc(F)c1-c1[nH]ncc1C(=O)N[C@H](c1cccc(Cl)c1)C1CCCS1(=O)=O` (stereo partly drawn) [I-999]: 10 to 100 µM; for `C[S@@+]([O-])c1ccc(N2CCC[C@@H](Nc3cc(N4CCOCC4)ccn3)C2)cc1` [I-864]: > 200 µM; for `c1ccc2c(N3CCC[C@@H](Nc4cc(N5CCOCC5)ccn4)C3)ncnc2c1` [I-67]: > 200 µM.
Regarding `CCCCCCC[C@@H]1CCCN(c2ccnc(N3CC[C@H]4[C@@H]3CCCN4c3cccc(F)c3)c2)C1` [I-728], the Kd was 10 to 100 µM.
The same measure for `Cc1c(F)ccc(F)c1-c1c(C(=O)N[C@@H](CC(N)=O)c2cccc(Cl)c2)cn(C)c1C(=O)c1ccc(OCCOCCOCCN)cc1` [I-1034]: < 10 µM.
As for `COc1cc(N2CCC[C@@H](Nc3cc(N4CCOCC4)ccn3)C2)cnc1CO` [I-854], the Kd is 10 to 100 µM.
With `CC1CCN(c2ccnc(N[C@@H]3CCCN(c4cccc(F)c4)C3)c2)CC1` [I-571], the Kd is 10 to 100 µM.
As for `CC(=O)Nc1ccc(N2CCC[C@H]3[C@@H]2CCN3c2cc(N3CCCCC3)ccn2)cc1F` [I-747], the Kd was > 200 µM.
With `C=CC(=O)N(CCCCN1CCN(c2ccnc(N[C@@H]3CCCN(c4cccc(F)c4)C3)c2)CC1)CCOCCOCCNC(=O)C[C@@H]1N=C(c2ccc(Cl)cc2)c2c(sc(C)c2C)-n2c(C)nnc21` [I-904] the figure was 10 to 100 µM; with `Cc1cccc(N2CCC[C@H]3[C@@H]2CCN3c2cc(N3CC4CC(C4)C3)ccn2)c1` [I-711], 10 to 100 µM.
Take `NC(=O)OCc1cccc(N2CCC[C@H]3[C@@H]2CCN3c2cc(N3CCCCC3)ccn2)c1` [I-954]: the Kd was < 10 µM.
On to `NC(=O)C[C@H](NC(=O)c1cn[nH]c1-c1ccccc1F)c1ccccc1F` [I-602], for which the dissociation constant (Kd) was < 10 µM.
With `O=C1C(Nc2cc(N3CCOCC3)ccn2)CCCN1c1cccc(F)c1` (stereo not drawn) [I-502] the figure was > 200 µM.
With `c1cc(N2CCCCC2)cc(N[C@@H]2CCC[C@@H](C3CCCCC3)C2)n1` [I-752] the figure was 10 to 100 µM.
With `CCC(=O)NC1CCC2(CC1)CCN(c1cccc(N[C@@H]3CCCN(c4cccc(F)c4)C3)c1)CC2` [I-853] the figure was < 10 µM; with `C=CC(=O)Nc1ccc2c(C(=O)N[C@@H](CC(N)=O)c3cccc(Cl)c3)n[nH]c2c1` [I-301], > 200 µM; with `N#Cc1ccc(N2CCOCC2)cc1N[C@@H]1CCCN(c2cccc(F)c2)C1` [I-71], 10 to 100 µM.
`NC(=O)C[C@H](NC(=O)c1cn[nH]c1-c1cc(CC(=O)O)ccc1F)c1cccc(Cl)c1` [I-285]: the Kd was in the range of 100 to 200 µM.
The same measure for `COCCn1ncc(C(=O)N[C@@H](CC(N)=O)c2cccc(Cl)c2)c1-c1ccccc1F` [I-88]: > 200 µM; for `Fc1cccc(N2CCC[C@@H](N(c3ccncc3)c3cc(N4CCOCC4)ccn3)C2)c1` [I-307]: > 200 µM.
The same measure for `NC(=O)C[C@H](NC(=O)c1cn[nH]c1[C@@H]1CCCOC1)c1cccc(Cl)c1` [I-346]: > 200 µM.

The record behind these values is patent US20260373266A1, “PROTEIN DEGRADERS AND USES THEREOF” (KYMERA THERAPEUTICS, INC., priority 2022, published 2026).
